Data: paper PMC6364133, “Selectivity of Dietary Phenolics for Inhibition of Human Monoamine Oxidases A and B” (BioMed Research International, 2019)
“Also recorded” adds a separate entry of the source. Where two headings read alike, the source gives them in different places.

Experiments:
MAO-A [1] = target: T1, MAO-A (Homo sapiens, UniProt P21397); details: competitive; cited from earlier work
T1 construct: purchased BD Biosciences (San Jose, CA) or Corning Discovery Labware (Woburn, MA)
T1 sequence (P21397 1-527): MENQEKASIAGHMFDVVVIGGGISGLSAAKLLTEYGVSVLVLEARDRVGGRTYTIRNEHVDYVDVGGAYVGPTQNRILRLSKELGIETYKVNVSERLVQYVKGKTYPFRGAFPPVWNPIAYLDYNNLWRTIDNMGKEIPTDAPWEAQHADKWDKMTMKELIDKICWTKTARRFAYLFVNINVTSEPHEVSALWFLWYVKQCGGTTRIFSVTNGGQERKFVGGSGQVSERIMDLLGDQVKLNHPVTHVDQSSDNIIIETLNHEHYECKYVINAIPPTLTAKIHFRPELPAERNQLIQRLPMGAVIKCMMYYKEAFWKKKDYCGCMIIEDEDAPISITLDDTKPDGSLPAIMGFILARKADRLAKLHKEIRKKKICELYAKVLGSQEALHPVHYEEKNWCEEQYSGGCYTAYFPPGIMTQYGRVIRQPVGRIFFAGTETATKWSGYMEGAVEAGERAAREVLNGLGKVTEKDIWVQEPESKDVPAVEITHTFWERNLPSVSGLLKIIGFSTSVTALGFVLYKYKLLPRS

MAO-B [2] = target: T2, MAO-B (Homo sapiens, UniProt P27338); details: competitive; cited from earlier work
T2 construct: purchased BD Biosciences (San Jose, CA) or Corning Discovery Labware (Woburn, MA)
T2 sequence (P27338 1-520): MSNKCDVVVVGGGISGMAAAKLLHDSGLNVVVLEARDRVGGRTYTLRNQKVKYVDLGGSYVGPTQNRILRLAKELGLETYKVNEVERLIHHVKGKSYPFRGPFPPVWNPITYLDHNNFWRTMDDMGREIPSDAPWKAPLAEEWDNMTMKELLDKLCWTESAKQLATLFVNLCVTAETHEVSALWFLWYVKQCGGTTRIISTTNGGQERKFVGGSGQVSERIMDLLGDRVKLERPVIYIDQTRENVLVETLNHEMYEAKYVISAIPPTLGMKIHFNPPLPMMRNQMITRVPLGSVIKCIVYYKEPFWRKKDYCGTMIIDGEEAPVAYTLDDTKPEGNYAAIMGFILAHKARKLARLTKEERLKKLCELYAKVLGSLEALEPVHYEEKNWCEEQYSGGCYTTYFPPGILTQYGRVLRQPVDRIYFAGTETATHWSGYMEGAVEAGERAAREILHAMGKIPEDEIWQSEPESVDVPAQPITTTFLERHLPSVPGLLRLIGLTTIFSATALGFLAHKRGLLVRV

MAO-A [3] = target: T1, MAO-A; assay: MAO-A inhibition, kynuramine to 4-hydroxyquinoline, HPLC-fluorescence; type: biochemical
[4] = rats, 56 or 168 mg/kg/day by gavage for 14 continuous days; cited from earlier work
MAO-B [5] = target: T2, MAO-B; assay: MAO-B inhibition, kynuramine to 4-hydroxyquinoline, HPLC-fluorescence; type: biochemical
MAO-B [6] = target: T2, MAO-B; assay: Inhibition mechanism studies (competition, time dependence) with MAO-B; type: biochemical
[7] = human, 125mg twice daily orally for 6-8 weeks; cited from earlier work
MAO-A [8] = details: cited from earlier work
[9] = cited from earlier work
MAO-A in rat brain = details: cited from earlier work
MAO-B [10] = details: up to 10μM; cited from earlier work
[11] = highest expected luminal concentration: curcumin 140, guaiacol 435, isoeugenol 110, pterostilbene 270, resveratrol 94, zingerone 51 µM, p < 0.05 vs control
[12] = kynuramine 10 µM, MAO-A 0.01 mg/mL, 15 min

For `C=CCc1ccc(O)c(OC)c1` [eugenol], the Ki (MAO-A [1]) is given as 26 µM and the Ki (MAO-B [2]) is given as 211 µM.
In the case of `COc1cc(/C=C/c2ccc(O)cc2)cc(OC)c1` [pterostilbene], the “inhibition of MAO-A activity in screening” value (MAO-A [3]; [11]) is reported as “significantly inhibited”, the IC50 (MAO-A [3]; [12]) is reported as 13.4 ± 1.5 µM and the “MAO-A Hill coefficient” value (MAO-A [3]; [12]) is reported as 1.7 ± 0.3. For the same compound, the “Selectivity Index” value (MAO-A [3]; ratio of MAO-B IC50/MAO-A IC50) was 0.0103, the oral bioavailability [4] was 80% and the “inhibition of MAO-B activity in screening” value (MAO-B [5]; [11]) was “significantly inhibited”. For the same compound, the IC50 (MAO-B [5]; kynuramine 10 µM, MAO-B 0.01 mg/mL, 15 min) was 0.138 ± 0.013 µM, the “mechanism of MAO-B inhibition” value (MAO-B [6]) was “competitive time-independent; also recorded: competitive, time-independent” and the “time profile of MAO-B activity on preincubation” value (MAO-B [6]; 0.7 μM, preincubation 0-60 min) was “not significantly different from the control”. The “Vmax of kynuramine with MAO-B in presence of inhibitor” value (MAO-B [6]; pterostilbene 0.45 μM, kynuramine 2-450 μM) was 3.28 ± 0.19 nmol/min/mg protein, the plasma low-density lipoproteins [7] was “slightly raised” and the “systolic and diastolic blood pressure” value [7] was “reduces”.
In the case of `Oc1ccc(/C=C/c2cc(O)cc(O)c2)cc1` [resveratrol], the MAO-A inhibition (MAO-A [8]) is listed as “inhibitor of MAO-A”, the plasma protein binding [9] is listed as 91% and the Ki (MAO-B [5]; from IC50 assuming competitive inhibition) is listed as 10.2 µM. For the same compound, the IC50 (MAO-A in rat brain) was 2 µM, the Ki (MAO-A in rat brain) was 2.5 µM and the MAO-B inhibition (MAO-B [10]) was “did not significantly inhibit”.
